Reference: patent US4835190A, “Phenolic thioethers as inhbitors of 5-lipoxygenase” (G. D. Searle & Co., priority 1987, dated 1989)

Experiments:
5-lipoxygenase = molecular target: T1, 5-lipoxygenase (Rattus norvegicus, UniProt P12527); experiment: Inhibition of 5-lipoxygenase, in vitro (5-HETE synthesis, RBL-1 homogenate supernatant); assay type: biochemical; details: RBL-1 100,000×g supernatant, [1-14C]-arachidonic acid and Ca++, 5-HETE by TLC; initial screen 1×10^-4 M
T1 construct: supernatant fraction of Rat Basophilic Leukemia Cell Homogenate (RBL-1) serves as a 5-lipoxygenase enzyme source; endogenous in cells; host or cells: RBL-1 (rat basophilic leukemia) cells, 100,000×g supernatant of homogenate
T1 sequence (P12527 1-673): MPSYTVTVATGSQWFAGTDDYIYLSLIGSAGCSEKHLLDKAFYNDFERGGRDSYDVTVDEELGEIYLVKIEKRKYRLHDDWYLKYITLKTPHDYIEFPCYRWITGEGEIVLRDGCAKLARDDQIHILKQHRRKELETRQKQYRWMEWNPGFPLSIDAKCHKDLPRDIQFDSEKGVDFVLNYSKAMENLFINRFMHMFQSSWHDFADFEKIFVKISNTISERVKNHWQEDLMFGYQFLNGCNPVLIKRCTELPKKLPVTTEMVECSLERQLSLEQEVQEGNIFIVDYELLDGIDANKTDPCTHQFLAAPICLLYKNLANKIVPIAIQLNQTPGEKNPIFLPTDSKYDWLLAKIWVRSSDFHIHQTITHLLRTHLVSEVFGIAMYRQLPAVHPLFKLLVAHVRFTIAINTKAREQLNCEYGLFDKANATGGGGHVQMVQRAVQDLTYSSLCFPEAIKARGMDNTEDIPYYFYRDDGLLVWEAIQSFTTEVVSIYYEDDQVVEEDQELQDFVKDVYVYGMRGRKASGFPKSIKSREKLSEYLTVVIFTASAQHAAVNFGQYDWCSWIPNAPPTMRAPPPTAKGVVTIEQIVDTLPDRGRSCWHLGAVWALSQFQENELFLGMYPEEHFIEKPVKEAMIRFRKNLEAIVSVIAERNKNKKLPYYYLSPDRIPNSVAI
Method: The compounds of the invention are evaluated with respect to 5-lipoxygenaseinhibition according to the following assay procedure.
Inhibition of 5-lipoxygenase, in vitro: anti-inflammatory, anti-allergy activities. The 100,000×g supernatant fraction of Rat Basophilic Leukemia Cell Homogenate (RBL-1) serves as a 5-lipoxygenase enzyme source. The enzyme is incubated with [1-^14 C)-arachidonic acid and Ca++ in the presence and absence of test compound. The product of 5-lipoxygenase, 5-hydroxyeicosatetraenoic acid (5-HETE), is separated by thin-layer chromatography and measured by radioactivity. A compound inhibiting 5-HETE synthesis by 30% or more is considered active at that concentration.

[1] = versus histamine; cited from earlier work

Row | SMILES | IC50 (5-lipoxygenase) | other results
1 | CCCCCSc1cc(C(C)(C)C)c(O)c(C(C)(C)C)c1 [Example 3, 2,6-bis(1,1-dimethylethyl)-4-(pentylthio)phenol] | 1.2 µM | 
2 | CC(C)Sc1cc(C(C)(C)C)c(O)c(C(C)(C)C)c1 [Example 4, 2,6-bis(1,1-dimethylethyl)-4-[(1-methylethyl)thio]-phenol] | 1.3 µM | 
3 | CSc1cc(C(C)(C)C)c(O)c(C(C)(C)C)c1 [Example 5, 2,6-bis(1,1-dimethylethyl)-4-(methylthio)phenol] | 0.58 µM | 
4 | C[S+]([O-])c1cc(C(C)(C)C)c(O)c(C(C)(C)C)c1 (centres unmarked) [Example 6, 2,6-bis(1,1-dimethylethyl)-4-(methylsulfinyl)phenol] | 100 µM | 
5 | CC(C)(C)c1cc(S(C)(=O)=O)cc(C(C)(C)C)c1O [Example 7, 2,6-bis(1,1-dimethylethyl)-4-(methylsulfonyl)phenol] |  | 5-Lipoxygenase Inhibition, in vitro, IC50 (5-lipoxygenase): Inactive
6 | COc1c(C(C)(C)C)cc(SC)cc1C(C)(C)C [Example 8, 2,6-bis(1,1-dimethylethyl)-1-methoxy-4-(methylthio)benzene] | 100 µM | 
7 | CSc1c(O)c(C(C)(C)C)cc(C(C)(C)C)c1O [Example 9, 4,6-bis(1,1-dimethylethyl)-2-(methylthio)-1,3-benzenediol] | 11 µM | 
8 | CCCCC/C=C\C\C=C/C=C/C=C/[C@@H](SC[C@H](NC(=O)CC[C@H](N)C(=O)O)C(=O)NCC(=O)O)[C@@H](O)CCCC(=O)O [LTC4] |  | potency relative to histamine in causing long lasting bronchoconstricting effects [1]: at least 100 times
